Active and inactive are the calls of the source.
What was measured:
X-box-binding protein 1 = X-box-binding protein 1 (Homo sapiens, UniProt P17861); format: functional, Cricetulus griseus;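 note: confirmatory dose-response counter-screen serving a CHOP assay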
[1] = target: Acyl-homoserine lactone acylase PvdQ (Pseudomonas aeruginosa (strain LESB58), UniProt Q9I194); assay: P. aeruginosa PvdQ acylase inhibitors, dose response, biochemical, fluorescence, plate reader and imaging, cherry-picks (AID 493231)
[2] = target: Glucose-6-phosphate 1-dehydrogenase (Homo sapiens, UniProt P11413); assay: human G6PD enzyme inhibitors, dose response, selectivity assay for P. falciparum G6PD inhibitor project, biochemical, fluorescence (AID 504792); format: functional
[3] = target: Cystic fibrosis transmembrane conductance regulator/Golgi-associated PDZ and coiled-coil motif-containing protein (Homo sapiens, UniProt P13569+Q9HD26); assay: CAL PDZ peptide-binding inhibitors, dose response, biochemical, fluorescence polarization, Cerulean-tagged CAL PDZ, cherry-picks (AID 504773)
[4] = target: Heat shock protein HSP 90-alpha (Homo sapiens, UniProt P07900); format: functional, organism-based
Nonstructural protein 1 = Nonstructural protein 1 (Influenza A virus, UniProt Q194T2); format: functional, Influenza A virus (A/California/07/2009(H1N1))
[5] = human group III sPLA2 inhibitors, dose response, biochemical, QFRET, IC50 (AID 743457);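 note: green fluorescence rise as the enzyme cleaves BODIPY PC-A2 in liposomes; potency for inhibition of the enzyme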
Bcl-2-like protein 10 = Bcl-2-like protein 10 (Homo sapiens, UniProt Q9HD36); assay: displacers of TR3 peptide from Bcl-B, primary screen, selectivity assay for Bfl-1 inhibitor project, biochemical, fluorescence polarization, FITC-TR3 peptide (AID 748);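 note: fluorescence polarization from a fluorescein-labelled TR3 peptide binding purified Bcl-B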
Estrogen receptor beta = Estrogen receptor beta (Homo sapiens, UniProt Q92731);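 note: recombinant ER-beta bound to coactivator SRC1 peptide in presence of estradiol agonist; inhibitors block coactivator peptide binding and lower the FRET signal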
Hexokinase HKDC1 = target: T1, Hexokinase HKDC1 (Homo sapiens, UniProt Q2TB90); assay: HKDC1 hexokinase inhibitors, dose response, biochemical, W721R variant (AID 504729); format: functional
T1 sequence (Q2TB90 whole entry): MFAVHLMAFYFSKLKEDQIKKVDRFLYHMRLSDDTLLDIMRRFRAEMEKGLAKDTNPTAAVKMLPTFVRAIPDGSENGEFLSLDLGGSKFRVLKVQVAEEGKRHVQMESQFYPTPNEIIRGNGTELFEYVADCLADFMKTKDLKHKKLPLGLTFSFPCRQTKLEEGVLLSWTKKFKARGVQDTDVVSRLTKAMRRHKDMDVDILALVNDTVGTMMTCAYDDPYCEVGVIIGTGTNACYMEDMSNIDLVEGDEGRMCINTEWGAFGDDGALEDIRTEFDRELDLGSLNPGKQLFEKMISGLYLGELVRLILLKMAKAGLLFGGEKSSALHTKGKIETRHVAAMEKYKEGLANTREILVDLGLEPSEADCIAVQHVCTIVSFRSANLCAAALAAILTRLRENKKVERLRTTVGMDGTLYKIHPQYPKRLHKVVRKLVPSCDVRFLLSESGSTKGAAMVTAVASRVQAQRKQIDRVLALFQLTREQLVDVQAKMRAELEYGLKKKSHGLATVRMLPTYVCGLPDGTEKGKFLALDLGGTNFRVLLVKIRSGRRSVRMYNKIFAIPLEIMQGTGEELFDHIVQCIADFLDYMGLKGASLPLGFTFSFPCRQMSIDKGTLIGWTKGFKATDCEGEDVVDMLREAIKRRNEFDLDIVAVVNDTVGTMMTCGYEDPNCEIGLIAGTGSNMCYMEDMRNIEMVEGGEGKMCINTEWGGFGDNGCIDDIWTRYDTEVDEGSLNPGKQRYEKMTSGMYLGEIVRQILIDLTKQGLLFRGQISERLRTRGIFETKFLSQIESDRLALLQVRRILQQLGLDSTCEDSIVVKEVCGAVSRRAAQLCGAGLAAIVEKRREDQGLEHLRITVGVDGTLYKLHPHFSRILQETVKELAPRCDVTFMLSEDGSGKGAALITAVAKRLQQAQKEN

[6] = target: Metabotropic glutamate receptor 4 (Rattus norvegicus, UniProt P31423); assay: Modulation of the Metabotropic Glutamate Receptor mGluR4: Rat PAM Potency. [Related pubchem assays (depositor defined):AID2437, AID2807]; format: functional
[7] = cytotoxicity in HEK-293T cells, dose response, cytotoxicity control for BCR NF-kB inhibitor project, luminescence, B-cell screen hits (AID 489021); format: functional, cell-based;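 note: HEK-293T cells carrying an NF-kB luciferase reporter; cells exposed to compound for about 14 hours before viability readout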
Cytochrome P450 2D6 = Cytochrome P450 2D6 (Homo sapiens, UniProt P10635);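 note: CYP2D6 member of a cytochrome P450 panel assay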
[8] = target: Melanin-concentrating hormone receptor 1 (Homo sapiens, UniProt Q99705); assay: Late-stage fluorescence-based counterscreen for antagonists of the G-protein coupled receptor 7 (GPR7): cell-based dose response assay to identify antagonists of the melanin-concentrating hormone receptor 1 (MCHR1). [Related pubchem assays (depositor defined):AID1861, AID1880, AID1952, AID2148, AID2251, AID2257, AID485339]; format: functional;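 note: stimulated with 30 nM MCH peptide agonist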
[9] = target: T2, Eukaryotic translation initiation factor 2-alpha kinase 3 (Homo sapiens, UniProt Q9NZJ5); assay: Dose response cell-based high-throughput screening assay to measure PERK inhibition. [Related pubchem assays: 1416 ]; format: functional
[10] = target: T2, Eukaryotic translation initiation factor 2-alpha kinase 3; assay: Counterscreen assay for PERK inhibitors: Dose response cell-based high throughput screening assay to measure inhibition of PERK at 6 hours. [Related pubchem assays: 1522, 1416 ]; format: functional
[11] = target: Induced myeloid leukemia cell differentiation protein Mcl-1 (Homo sapiens, UniProt Q07820); format: functional
[12] = target: C-C chemokine receptor type 6 (Homo sapiens, UniProt P51684); assay: CCR6 receptor antagonists, dose response, cell-based, luminescent beta-arrestin readout (AID 504728); format: functional
[13] = target: Eukaryotic translation initiation factor 4E (Mus musculus, UniProt P63073); assay: eIF4E–eIF4G protein interaction inhibitors, dose response, biochemical, TR-FRET (AID 855); format: functional;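 note: potency for disrupting eIF4E binding to eIF4GI seen as loss of FRET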
Beta-galactosidase = Beta-galactosidase (Escherichia coli, UniProt Q8VNN2); assay: beta-galactosidase enzyme inhibitors and activators, dose response, artefact control for CCR6 antagonist project, biochemical, E. coli enzyme, set 3 (AID 504712); format: functional

With `C/N=C1\SC(CC(=O)Nc2ccc(F)cc2F)C(=O)N1/N=C/c1ccc(OC(F)F)c(OC)c1` (stereo not given) the “Absolute IC50 (XBP1)” value (X-box-binding protein 1) was 10 µM.

For `OC(c1cccc(Cl)c1)c1nccc2ccccc12` (stereo not given), the AC50 [1] was 7.66 µM (active).

In the case of `COc1ccc2c(c1)c(=Cc1ccc(N(C)C)cc1)c1cc(-c3ccccc3)[n+](C)n12`, the IC50 [2] was 74.7 µM (inactive), the AC50 [3] was > 56 µM (inactive) and the AC50 [4] was 3.93 µM (active). The IC50 (Nonstructural protein 1) was 4.56 µM (active) and the IC50 [5] was > 40.6 µM (inactive).

With `c1coc(-c2nn3c(-c4ccco4)nnc3s2)c1` the IC50 (Bcl-2-like protein 10) was 86.5 µM (inactive) and the IC50 (Estrogen receptor beta) was 24 µM (active).

For `CCOC(=O)c1ccc(NC(=O)CSc2n[nH]c(-c3ccncc3)n2)cc1`, the IC50 (Hexokinase HKDC1) was 12.1 µM (active).

In the case of `O=C(Nc1ccc(N2C(=O)CCC2=O)c(Cl)c1)c1ccccn1`, the EC50 [6] was 6.89 µM (active).

In the case of `CCOc1ccc(-n2c(SCC(=O)Nc3ccc4c(c3)OCCO4)nc3c(c2=O)SCC3)cc1`, the IC50 [7] was > 80 µM (inactive) and the AC50 (Cytochrome P450 2D6) was 8.91 µM (inconclusive).

For `Cc1ccc(-n2ncc(Cl)c(OC3CCN(C(=O)OC(C)(C)C)CC3)c2=O)cc1`, the IC50 [8] was 5 µM (active).

For `Cc1ccc(C)c(OCC(=O)Nc2cc(C(=O)O)cc(C(=O)O)c2)c1`, the EC50 [9] was > 55.7 µM (not active) and the EC50 [10] was > 55.7 µM (not active).

In the case of `COc1ccc(N2C(=O)/C(=C/C=C/c3ccccc3[N+](=O)[O-])C(=O)NC2=S)cc1`, the IC50 [11] was 0.73 µM (active), the IC50 [12] was > 66.6 µM (inactive) and the IC50 [13] was 50 µM (inactive). For the same compound, the IC50 (Beta-galactosidase) was > 66.6 µM (inactive).
